Test results as given in PubChem BioAssay (NCI).
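Growth conditions: 96-well plates. Treatment: test compound, 48 hours, 5 concentrations. Analysis: linear interpolation between bracketing concentrations; unreached endpoints set to highest concentration. GI50 marks 50% less growth. At the TGI there is no net growth.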

How the values were obtained:
Assay in all cases: growth of human tumour cells (NCI), 48 h
LOX IMVI melanoma = test system: LOX IMVI melanoma
HCC-2998 colon = test system: HCC-2998 colon
NCI-H522 lung = test system: NCI-H522 lung
ACHN renal = test system: ACHN renal
CCRF-CEM leukemia = test system: CCRF-CEM leukemia
HL-60(TB) leukemia = test system: HL-60(TB) leukemia
HCT-116 colon = test system: HCT-116 colon
NCI-H226 lung = test system: NCI-H226 lung
U251 CNS = test system: U251 CNS
BT-549 breast = test system: BT-549 breast
MALME-3M melanoma = test system: MALME-3M melanoma
CAKI-1 renal = test system: CAKI-1 renal
MDA-MB-435 = test system: MDA-MB-435
SN12C renal = test system: SN12C renal
OVCAR-8 ovarian = test system: OVCAR-8 ovarian
786-0 renal = test system: 786-0 renal
KM12 colon = test system: KM12 colon
T-47D breast = test system: T-47D breast
UO-31 renal = test system: UO-31 renal
HOP-92 NSCLC = test system: HOP-92 NSCLC
SW-620 colon = test system: SW-620 colon
SNB-75 CNS = test system: SNB-75 CNS
SK-MEL-2 melanoma = test system: SK-MEL-2 melanoma
A498 renal = test system: A498 renal
MDA-MB-231 breast = test system: MDA-MB-231 breast
SK-OV-3 ovarian = test system: SK-OV-3 ovarian
SNB-19 CNS = test system: SNB-19 CNS
UACC-62 melanoma = test system: UACC-62 melanoma
DU-145 prostate = test system: DU-145 prostate
TK-10 renal = test system: TK-10 renal
HT29 colon = test system: HT29 colon
EKVX NSCLC = test system: EKVX NSCLC
SF-268 CNS = test system: SF-268 CNS
OVCAR-5 ovarian = test system: OVCAR-5 ovarian
COLO 205 colon = test system: COLO 205 colon
NCI-H460 lung = test system: NCI-H460 lung
M14 melanoma = test system: M14 melanoma
NCI/ADR-RES ovarian = test system: NCI/ADR-RES ovarian
SK-MEL-28 melanoma = test system: SK-MEL-28 melanoma
HOP-62 NSCLC = test system: HOP-62 NSCLC
SF-539 CNS = test system: SF-539 CNS
SF-295 CNS = test system: SF-295 CNS
SK-MEL-5 melanoma = test system: SK-MEL-5 melanoma
MOLT-4 leukemia = test system: MOLT-4 leukemia
IGROV1 ovarian = test system: IGROV1 ovarian
MCF7 breast = test system: MCF7 breast
A549 NSCLC = test system: A549 NSCLC
K-562 leukemia = test system: K-562 leukemia
PC-3 prostate = test system: PC-3 prostate
RXF 393 renal = test system: RXF 393 renal
UACC-257 melanoma = test system: UACC-257 melanoma
RPMI-8226 leukemia = test system: RPMI-8226 leukemia
HCT-15 colon = test system: HCT-15 colon

Compound: O=C1C2=C(C(=O)c3c(O)ccc(O)c31)N(c1cccnc1)Cc1ccccc1O2
- GI50 (LOX IMVI melanoma): 127 nM
- TGI (LOX IMVI melanoma): 560 nM
- GI50 (HCC-2998 colon): 1520 nM
- TGI (HCC-2998 colon): 3230 nM
- GI50 (NCI-H522 lung): 28.8 nM
- TGI (NCI-H522 lung): 112 nM
- GI50 (ACHN renal): 61.2 nM
- TGI (ACHN renal): 195 nM
- GI50 (CCRF-CEM leukemia): 87.8 nM
- TGI (CCRF-CEM leukemia): 513 nM
- GI50 (HL-60(TB) leukemia): 154 nM
- TGI (HL-60(TB) leukemia): 484 nM
- GI50 (HCT-116 colon): 92.3 nM
- TGI (HCT-116 colon): 324 nM
- GI50 (NCI-H226 lung): 703 nM
- TGI (NCI-H226 lung): 1820 nM
- GI50 (U251 CNS): 651 nM
- TGI (U251 CNS): 2760 nM
- GI50 (BT-549 breast): 392 nM
- TGI (BT-549 breast): 1240 nM
- GI50 (MALME-3M melanoma): 164 nM
- TGI (MALME-3M melanoma): 385 nM
- GI50 (CAKI-1 renal): 103 nM
- TGI (CAKI-1 renal): 421 nM
- GI50 (MDA-MB-435): 398 nM
- TGI (MDA-MB-435): 1150 nM
- GI50 (SN12C renal): 312 nM
- TGI (SN12C renal): 1020 nM
- GI50 (OVCAR-8 ovarian): 552 nM
- TGI (OVCAR-8 ovarian): 3430 nM
- GI50 (786-0 renal): 211 nM
- TGI (786-0 renal): 605 nM
- GI50 (KM12 colon): 1330 nM
- TGI (KM12 colon): 5230 nM
- GI50 (T-47D breast): 221 nM
- TGI (T-47D breast): 635 nM
- GI50 (UO-31 renal): 182 nM
- TGI (UO-31 renal): 398 nM
- GI50 (HOP-92 NSCLC): 207 nM
- TGI (HOP-92 NSCLC): 459 nM
- GI50 (SW-620 colon): 145 nM
- TGI (SW-620 colon): 357 nM
- GI50 (SNB-75 CNS): 615 nM
- TGI (SNB-75 CNS): 2150 nM
- GI50 (SK-MEL-2 melanoma): 1540 nM
- TGI (SK-MEL-2 melanoma): 4780 nM
- GI50 (A498 renal): 2370 nM
- TGI (A498 renal): 5320 nM
- GI50 (MDA-MB-231 breast): 265 nM
- TGI (MDA-MB-231 breast): 876 nM
- GI50 (SK-OV-3 ovarian): 3520 nM
- TGI (SK-OV-3 ovarian): 12800 nM
- GI50 (SNB-19 CNS): 2600 nM
- TGI (SNB-19 CNS): 10700 nM
- GI50 (UACC-62 melanoma): 183 nM
- TGI (UACC-62 melanoma): 396 nM
- GI50 (DU-145 prostate): 351 nM
- TGI (DU-145 prostate): 1170 nM
- GI50 (TK-10 renal): 270 nM
- TGI (TK-10 renal): 983 nM
- GI50 (HT29 colon): 313 nM
- TGI (HT29 colon): 4230 nM
- GI50 (EKVX NSCLC): 1180 nM
- TGI (EKVX NSCLC): 5740 nM
- GI50 (SF-268 CNS): 650 nM
- TGI (SF-268 CNS): 2000 nM
- GI50 (OVCAR-5 ovarian): 564 nM
- TGI (OVCAR-5 ovarian): 1800 nM
- GI50 (COLO 205 colon): 102 nM
- TGI (COLO 205 colon): 333 nM
- GI50 (NCI-H460 lung): 2600 nM
- TGI (NCI-H460 lung): 6780 nM
- GI50 (M14 melanoma): 260 nM
- TGI (M14 melanoma): 771 nM
- GI50 (NCI/ADR-RES ovarian): 861 nM
- TGI (NCI/ADR-RES ovarian): > 25900 nM
- GI50 (SK-MEL-28 melanoma): 266 nM
- TGI (SK-MEL-28 melanoma): 644 nM
- GI50 (HOP-62 NSCLC): 2290 nM
- TGI (HOP-62 NSCLC): 6640 nM
- GI50 (SF-539 CNS): 378 nM
- TGI (SF-539 CNS): 1360 nM
- GI50 (SF-295 CNS): 2430 nM
- TGI (SF-295 CNS): 8400 nM
- GI50 (SK-MEL-5 melanoma): 1330 nM
- TGI (SK-MEL-5 melanoma): 2990 nM
- GI50 (MOLT-4 leukemia): 210 nM
- GI50 (IGROV1 ovarian): 289 nM
- TGI (IGROV1 ovarian): 960 nM
- GI50 (MCF7 breast): 191 nM
- TGI (MCF7 breast): 912 nM
- GI50 (A549 NSCLC): 2850 nM
- TGI (A549 NSCLC): 19900 nM
- GI50 (K-562 leukemia): 75.2 nM
- GI50 (PC-3 prostate): 653 nM
- TGI (PC-3 prostate): 2030 nM
- GI50 (RXF 393 renal): 182 nM
- TGI (RXF 393 renal): 367 nM
- GI50 (UACC-257 melanoma): 399 nM
- TGI (UACC-257 melanoma): 1390 nM
- GI50 (RPMI-8226 leukemia): 386 nM
- TGI (RPMI-8226 leukemia): 2030 nM
- GI50 (HCT-15 colon): 167 nM
- TGI (HCT-15 colon): 648 nM
